In the supplement of paper PMC10307832:

What was measured:
Experiment in all cases: relative viability (nuclei count vs DMSO), 5 days (fraction); higher = more cells survive
Linsitinib + Bortezomib = compound: C[C@]1(O)C[C@@H](c2nc(-c3ccc4ccc(-c5ccccc5)nc4c3)c3c(N)nccn32)C1 [Linsitinib] + CC(C)C[C@H](NC(=O)[C@H](Cc1ccccc1)NC(=O)c1cnccn1)B(O)O [Bortezomib] (partner 0.002 µM)
Method in brief: (§1)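 Values are medians from duplicate plates. Each reflects relative viability, defined as the nuclei count of treated wells over that of vehicle wells. Lung cancer cell lines in 1536-well plates were pin-tool dosed one day after seeding with one drug alone or with a fixed anchor-drug dose plus five library-drug doses (not always all listed) in √10 steps, then fixed, stained and imaged at 4× after 5 days.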

Ispinesib + OSI-027 = compound: Cc1ccc(C(=O)N(CCCN)[C@@H](c2nc3cc(Cl)ccc3c(=O)n2Cc2ccccc2)C(C)C)cc1 [Ispinesib] + COc1cccc2cc(-c3nc([C@H]4CC[C@H](C(=O)O)CC4)n4ncnc(N)c34)[nH]c12 [OSI-027] (partner 0.5 µM)
Method in brief: as §1

Linsitinib + Luminespib = compound: C[C@]1(O)C[C@@H](c2nc(-c3ccc4ccc(-c5ccccc5)nc4c3)c3c(N)nccn32)C1 [Linsitinib] + CCNC(=O)c1noc(-c2cc(C(C)C)c(O)cc2O)c1-c1ccc(CN2CCOCC2)cc1 [Luminespib] (partner 0.01 µM)
Method in brief: as §1

Linsitinib + Lapatinib = compound: C[C@]1(O)C[C@@H](c2nc(-c3ccc4ccc(-c5ccccc5)nc4c3)c3c(N)nccn32)C1 [Linsitinib] + CS(=O)(=O)CCNCc1ccc(-c2ccc3ncnc(Nc4ccc(OCc5cccc(F)c5)c(Cl)c4)c3c2)o1 [Lapatinib] (partner 2 µM)
Method in brief: as §1

UMC-11
relative viability (Linsitinib + Bortezomib; first compound 0.01 µM): 0.693 | relative viability (Linsitinib + Bortezomib; first compound 0.03162 µM): 0.621 | relative viability (Linsitinib + Bortezomib; first compound 0.1 µM): 0.829 | relative viability (Linsitinib + Bortezomib; first compound 1 µM): 0.752 | relative viability (Ispinesib + OSI-027; first compound 0.001 µM): 0.484 | relative viability (Ispinesib + OSI-027; first compound 0.003162 µM): 0.429 | relative viability (Ispinesib + OSI-027; first compound 0.01 µM): 0.445 | relative viability (Ispinesib + OSI-027; first compound 0.03162 µM): 0.219 | relative viability (Ispinesib + OSI-027; first compound 0.1 µM): 0.239 | relative viability (Linsitinib + Luminespib; first compound 0.01 µM): 1.04 | relative viability (Linsitinib + Luminespib; first compound 0.03162 µM): 0.717 | relative viability (Linsitinib + Luminespib; first compound 0.1 µM): 0.992 | relative viability (Linsitinib + Luminespib; first compound 1 µM): 1.02 | relative viability (Linsitinib + Lapatinib; first compound 0.01 µM): 0.889 | relative viability (Linsitinib + Lapatinib; first compound 0.03162 µM): 0.871 | relative viability (Linsitinib + Lapatinib; first compound 0.1 µM): 1.08 | relative viability (Linsitinib + Lapatinib; first compound 0.3162 µM): 0.303 | relative viability (Linsitinib + Lapatinib; first compound 1 µM): 0.843
